This test addresses GSPT1 (Homo sapiens, UniProt P15170+Q96SW2). Briefly: GSPT1 HiBiT Degradation Assay in 293T.114 cells. Background: The HiBiT peptide binds its large partner to form an active luciferase.

Chain of GSPT1 (Q96SW2 whole entry): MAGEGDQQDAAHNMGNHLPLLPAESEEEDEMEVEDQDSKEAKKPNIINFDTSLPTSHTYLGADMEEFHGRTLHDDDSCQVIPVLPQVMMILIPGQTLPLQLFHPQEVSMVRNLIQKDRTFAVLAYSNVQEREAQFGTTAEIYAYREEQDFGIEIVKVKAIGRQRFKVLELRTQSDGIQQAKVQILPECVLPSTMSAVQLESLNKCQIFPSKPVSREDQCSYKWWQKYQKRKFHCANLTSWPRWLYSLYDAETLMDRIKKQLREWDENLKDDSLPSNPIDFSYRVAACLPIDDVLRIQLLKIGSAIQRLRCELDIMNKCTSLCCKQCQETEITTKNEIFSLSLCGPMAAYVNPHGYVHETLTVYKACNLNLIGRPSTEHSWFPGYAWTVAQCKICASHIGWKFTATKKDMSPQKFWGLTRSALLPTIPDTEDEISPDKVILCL
Chain of GSPT1 (Q16531 2-1140, further chain): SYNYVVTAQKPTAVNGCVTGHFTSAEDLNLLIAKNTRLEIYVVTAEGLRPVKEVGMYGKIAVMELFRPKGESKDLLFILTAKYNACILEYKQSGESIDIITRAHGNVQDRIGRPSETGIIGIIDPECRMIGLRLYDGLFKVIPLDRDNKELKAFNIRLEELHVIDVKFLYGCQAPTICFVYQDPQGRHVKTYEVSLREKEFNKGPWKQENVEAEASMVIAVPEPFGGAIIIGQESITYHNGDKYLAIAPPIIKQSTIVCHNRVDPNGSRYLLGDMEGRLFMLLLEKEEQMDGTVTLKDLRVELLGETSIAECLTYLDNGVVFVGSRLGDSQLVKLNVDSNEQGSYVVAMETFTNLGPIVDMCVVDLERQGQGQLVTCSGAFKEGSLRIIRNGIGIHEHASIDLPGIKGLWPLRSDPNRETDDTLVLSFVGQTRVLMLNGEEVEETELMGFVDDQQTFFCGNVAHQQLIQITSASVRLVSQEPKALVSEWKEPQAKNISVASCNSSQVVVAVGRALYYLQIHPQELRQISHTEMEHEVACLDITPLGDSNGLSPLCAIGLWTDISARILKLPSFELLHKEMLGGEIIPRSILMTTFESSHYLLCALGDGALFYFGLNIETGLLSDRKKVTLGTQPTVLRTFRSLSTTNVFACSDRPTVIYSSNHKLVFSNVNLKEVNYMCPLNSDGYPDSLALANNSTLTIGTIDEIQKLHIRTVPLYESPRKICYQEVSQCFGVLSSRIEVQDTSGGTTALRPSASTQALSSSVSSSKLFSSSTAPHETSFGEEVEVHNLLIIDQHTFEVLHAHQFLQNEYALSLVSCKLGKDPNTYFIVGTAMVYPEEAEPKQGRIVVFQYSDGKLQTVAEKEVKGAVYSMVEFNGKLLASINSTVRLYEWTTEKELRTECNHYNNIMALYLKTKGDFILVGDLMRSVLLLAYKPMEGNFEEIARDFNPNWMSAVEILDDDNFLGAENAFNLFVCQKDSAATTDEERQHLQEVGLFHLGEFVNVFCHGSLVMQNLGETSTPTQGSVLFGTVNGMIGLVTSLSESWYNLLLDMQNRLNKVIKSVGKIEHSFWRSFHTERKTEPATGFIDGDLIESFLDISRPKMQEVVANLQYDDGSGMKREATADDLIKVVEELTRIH
Chain of GSPT1 (P15170 whole entry): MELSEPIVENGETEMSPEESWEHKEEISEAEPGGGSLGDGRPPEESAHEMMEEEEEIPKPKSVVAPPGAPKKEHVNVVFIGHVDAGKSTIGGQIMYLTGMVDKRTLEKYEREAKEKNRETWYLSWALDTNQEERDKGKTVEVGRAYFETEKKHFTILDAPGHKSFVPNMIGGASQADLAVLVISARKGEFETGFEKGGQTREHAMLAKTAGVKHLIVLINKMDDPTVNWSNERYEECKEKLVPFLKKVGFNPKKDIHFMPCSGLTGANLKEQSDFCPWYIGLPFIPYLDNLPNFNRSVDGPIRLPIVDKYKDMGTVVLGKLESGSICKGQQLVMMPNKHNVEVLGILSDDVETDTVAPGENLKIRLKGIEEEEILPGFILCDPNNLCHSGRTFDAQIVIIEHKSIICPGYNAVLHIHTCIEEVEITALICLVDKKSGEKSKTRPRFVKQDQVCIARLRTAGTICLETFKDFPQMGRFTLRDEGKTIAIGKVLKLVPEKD
Procedure: Upon cell lysis and addition of the complementing LgBiT polypeptide and its substrate, the HiBiT polypeptide on GSPT1 allows reconstitution of an enzyme that activates its substrate to produce a luminescent signal that is directly proportional to the amount of HiBiT-tagged GSPT1. […] Cell culture flasks and 384-well microplates were acquired from VWR (Radnor, PA, USA).
Cellular GSPT1 protein level was determined based on quantification of luminescent signal using the Nano-Glo® HiBiT Lytic Assay kit (Promega). Following the 24 hr treatment time, Nano-Glo® HiBiT Lytic Assay reagents were added to the cells per the manufacturer's instructions by adding 30 µl of reagent per well, and the luminescence signal was acquired on the PHERAstar plate reader (BMG Labtech, Ortenberg, Germany). Cells treated with DMS0 only (no test compound treatment) were used as the negative control (N). Media only (no cells added) withNano-Glo reagent additionwasused as the background orpositive control (P). The percent response of compound treated samples were calculated by subtracting out the 5 background signal (P) and normalizing to the DMS0 control (N) as follows. 0% Response=100 x (Treated Signal - Average (P))/(Average (N) - Average (P)).
Data were analyzed with a 4-parameter logistic fit to generate sigmoidal dose-response curves. DC50 values were computed as the concentrations where the fitted curves cross the 5000 response level.

Consider `CCN(C)S(=O)(=O)Nc1ccc(F)c(Oc2ccc3ncn([C@@H]4COC5(CCN(C(=O)CN6CCC(c7ccc(C8CCC(=O)NC8=O)cc7OS(=O)(=O)F)CC6)CC5)C4)c(=O)c3c2)c1C#N` (stereo partly drawn) [drawing 1231], for which the “HIBIT-Degradation 293T.114 GSPT1 24 hours IP nM” value (24 hours, 293T.114 cells, inflection point of the dose-response curve) was “** (<10 μM and >1 μM is **)”. For the same compound, the DC50 (read-out: HIBIT-Degradation 293T.114 GSPT1 24 hours DC50 nM, 24 hours, 293T.114 cells) is > 10000 nM. The Emax (read-out: HIBIT-Degradation 293T.114 GSPT1 24 hours Emax) is < 60%.

As usually defined, the DC50 is the concentration at which degradation of the target reaches its halfway point. What is called Emax is the greatest response seen or fitted, relative to the assay's reference.

The values are drawn from patent US20260274856A1, “COVALENT CEREBLON LIGANDS” (C4 THERAPEUTICS, INC., priority 2023, published 2026).
